Measured values reported in patent US20140356343A1, “COMPOSITION FOR TREATING PARKINSON'S DISEASE” (priority 2011, published 2014).
Read-outs that look alike come from different tables or passages of the source. No end group written: not given here.

Test system: unilateral 6-hydroxydopamine (6-OHDA) lesioned rat
Format: in vivo, Male Sprague-Dawley rats
Conditions: for effect on onset of rotational action of apamin: given with apamin
Source text: The potential antiparkinsonian activity of apitoxin (bee venom; Alyostal®), and certain of its constituents such as apamin, melittin, hyaluronidase, and others were investigated in the standard, unilateral 6-hydroxydopamine (6-OHDA) lesioned rat model, in animals responding to an apomorphine challenge, according to the method previously described with minor modifications (Oh J D, Chartisathian K, Ahmed S M, and Chase T N. (2003) J of Neurosci. Res. 72, 768-780, Oh J D, Chartisathian K, Chase T N and Butcher L L, (2000) Brain Res. 853, 174-185, Oh J D and Chase T N. (2002) Amino Acids 23, 133-139, Oh J D, Del Dotto P, Chase T N. (1997) Neurosci Lett. 228, 5-8, Oh J D, Geller A I, Zhang G, Chase T N. (2003) Br. Res. 971, 18-30, Oh J D, Russell D, Vaughan C L and Chase T N. (1998) Br. Res. 813, 150-159.). Conventional anti-parkinsonian dopamine (DA) agonists, apomorphine, amphetamine, and L-dopa were used as comparator drugs. Control animals received vehicle, phosphate buffered saline (PBS). Rotation (turning) behavior in response to drug challenge was used as a predictor of anti-parkinson activity. All compounds or vehicle were administered either subcutaneously (s.c.) or intraperitonealy (i.p.).
The anti-parkinson activity of various test substances was studied as previously described 1-6. Male Sprague-Dawley rats weighing approximately 300 g were housed with free access to food and water. Under […] (50 mg/kg, i.p.), the nigrostriatal pathway was unilaterally lesioned by administering 6-OHDA HCl (8 μg in 4 μL of saline with 0.02% ascorbate) into the left medial forebrain bundle (AP −5.0, L 1.3, V 8.0 from the dura mater). Following surgery, rats were challenged with apomorphine (0.1 mg/kg, s.c.), to confirm the lesion of nigro-striatal pathway. Rats that responded to apomorphine were kept for further testing.
Rats received test drugs, comparator drugs, or vehicle on post-surgical Week 3 following 6-OHDA lesioning and subsequently for additional […] (Week 4-10 post-surgery).
Rotation behavior was measured by placing rats in a rotometer and measuring turning behavior over 5-minute periods (5-min bins). To measure rotation behavior, each animal was placed at least 10 minutes prior to the drug or vehicle administration into a rotometer and turning was measured. Animals then received test drugs, and turning behavior was measured as described above for 4 to 12 hours post-drug administration.

[1] = Melittin 0.5 to 3 mg/kg with apamin 0.5 to 1.0 mg/kg
[2] = Melittin alone, dose range 1-3 mg/kg
[3] = Hyaluronidase alone, dose range 10 to 30 mg/kg
[4] = PL-A2 alone, approximately 2 and 3 mg/kg i.p.
[5] = Phospholipase A2 alone, dose range 2 to 3 mg/kg

## CC(C)C[C@@H]1NC(=O)[C@H](C)NC(=O)[C@H]([C@@H](C)O)NC(=O)[C@H](CCC(=O)O)NC(=O)[C@@H]2CCCN2C(=O)[C@H](C)NC(=O)[C@H](CCCCN)NC(=O)[C@@H]2CSSC[C@@H](C(=O)N[C@@H](CCC(N)=O)C(=O)N[C@@H](CCC(N)=O)C(=O)N[C@@H](Cc3cnc[nH]3)C(N)=O)NC(=O)[C@H](CCCNC(=N)N)NC(=O)[C@H](CCCNC(=N)N)NC(=O)[C@H](C)NC(=O)[C@H](CSSC[C@H](N)C(=O)N[C@@H](CC(N)=O)C(=O)N2)NC1=O [Apamin, apamin]
Apamin 0.5 mg/kg alone
  Atypical Motor Behaviors: None
Apamin 1 mg/kg alone
  Atypical Motor Behaviors: Mild
Apamin alone
  Atypical Motor Behaviors (dose at which seen): ≧1.5 mg/kg
  doses at which abnormal motor behaviors increasingly interfered with normal and rotatory motor behaviors: 1.5 to 3.0 mg/kg
  doses at which abnormal motor behaviors were clinically insignificant: 0.75 to 1.50 mg/kg
Apamin alone, tremors, dystonic postures, alterations in muscular tone, locomotor incoordination
  dose at which atypical motor behavior began to appear: about 1.5 mg/kg
Motoric response, apamin alone
  therapeutic index compared with apitoxin: lower therapeutic index

## CN1CCc2cccc3c2[C@H]1Cc1ccc(O)c(O)c1-3 [Apomorphine, apomorphine, reference compound]
Apomorphine co-administration at less than standard dose, 0.005 mg/kg s.c.
  effect on apamin-induced contralateral rotations: mildly potentiate

## CC[C@H](C)[C@H](NC(=O)CN)C(=O)NCC(=O)N[C@@H](C)C(=O)N[C@H](C(=O)N[C@@H](CC(C)C)C(=O)N[C@@H](CCCCN)C(=O)N[C@H](C(=O)N[C@@H](CC(C)C)C(=O)N[C@H](C(=O)N[C@H](C(=O)NCC(=O)N[C@@H](CC(C)C)C(=O)N1CCC[C@H]1C(=O)N[C@@H](C)C(=O)N[C@@H](CC(C)C)C(=O)N[C@H](C(=O)N[C@@H](CO)C(=O)N[C@@H](Cc1c[nH]c2ccccc12)C(=O)N[C@H](C(=O)N[C@@H](CCCCN)C(=O)N[C@@H](CCCNC(=N)N)C(=O)N[C@@H](CCCCN)C(=O)N[C@@H](CCCNC(=N)N)C(=O)N[C@@H](CCC(N)=O)C(=O)N[C@@H](CCC(N)=O)C(N)=O)[C@@H](C)CC)[C@@H](C)CC)[C@@H](C)O)[C@@H](C)O)C(C)C)C(C)C [Melittin]
0.25 mg/kg apamin and 0.75 mg/kg melittin
  effect on rotatory response to apamin: potentiated
[1]
  atypical motor behaviors that apamin usually induces: mild to absence
  onset of contralateral rotations: faster onset
[2]
  Atypical Motor Behaviors: None
  Rotational Response Contralateral: 10 number of turns in 12 hours
  Rotational Response Ipsilateral: 45 to 50 number of turns in 12 hours
Apitoxin component given alone
  ability similar to apamin to induce a conspicuous turning response: none
  effect on onset of rotational action of apamin: significantly hasten
Melittin alone 0.5 to 10 mg/kg i.p., contralateral more frequent than ipsilateral
  rotational response: modest, intermittent rotational response

## CC(N)Cc1ccccc1 (centres unmarked) [amphetamine, reference compound]
Amphetamine co-administration at less than the standard dose of 0.05 mg/kg i.p.
  effect on apamin-induced ipsilateral rotation: mildly potentiate

## NCCc1c[nH]cn1 [histamine, Histamine, reference compound]
rat, in vivo
  ability similar to apamin to induce a conspicuous turning response: none

## N[C@@H](Cc1ccc(O)c(O)c1)C(=O)O [levodopa, reference compound]
Levodopa co-administration at less than standard dose, 5 mg/kg i.p.
  effect on apamin-induced contralateral rotations: mildly potentiate

## HTGAVLAGV [HTGAVLAGV, reference compound]
HTGAVLAGV alone, 1-10 mg/kg
  Atypical Motor Behaviors: None

## Hyaluronidase
1.0 mg/kg apamin and 20 mg/kg hyaluronidase
  effect on atypical motor behaviors induced by apamin: reduced
[3]
  Atypical Motor Behaviors: None
  Rotational Response Contralateral: 5 number of turns in 12 hours
  Rotational Response Ipsilateral: 40 number of turns in 12 hours
Apitoxin component given alone
  ability similar to apamin to induce a conspicuous turning response: none
Hyaluronidase 5 to 20 mg/kg i.p. with apamin 0.1 to 1.0 mg/kg
  effect on ipsilateral turning behavior induced by apamin: mildly potentiated
Hyaluronidase given alone, 0.5 to 30 mg/kg i.p.
  turning: did not induce turning
Hyaluronidase with apamin, vs apamin given alone
  effect on atypical motor behaviors observed with higher doses of apamin: decreased

## Mast Cell Degranulating Peptide (IKCNCKRHVIKPHICRKICGKN; ends and bridges not checked; cysteine pairing not given here; UniProt P01499 28-49, looked up) [apitoxin component, GenScript #RP10663, reference compound]
Apitoxin component given alone
  ability similar to apamin to induce a conspicuous turning response: none

## Phospholipase A-2 [Phospholipase A2]
0.5 mg/kg apamin and 5 mg/kg PLA-2
  effect on rotatory response to apamin: potentiated
[4]
  duration of ipsilateral rotations: about 4 hours
  rotational response: induced ipsilateral rotations
  start of ipsilateral rotations after administration: 1 to 4 h
PL-A2 given alone
  Atypical Motor Behaviors: No atypical motor behaviors were observed
PL-A2 given alone, 1 mg/kg i.p.
  motor response: minimal squirming response
PLA-2 given with apamine
  effect on onset of turning behavior: accelerated
  effect on turning behavior: moderately potentiated
[5]
  Atypical Motor Behaviors: None
  Rotational Response Contralateral: 10 number of turns in 12 hours
  Rotational Response Ipsilateral: 50 to 60 number of turns in 12 hours
Apitoxin component given alone
  ability similar to apamin to induce a conspicuous turning response: none
  effect on onset of rotational action of apamin: significantly hasten

## Secapin [reference compound]
Secapin alone, 1-20 mg/kg
  Atypical Motor Behaviors: None
  Rotational Response Contralateral: 5 number of turns in 12 hours
  Rotational Response Ipsilateral: 40 number of turns in 12 hours
Secapin at 1 to 20 mg/kg
  rotational behavior above baseline (spontaneous rotation): little or no rotational behavior
Apitoxin component given alone
  ability similar to apamin to induce a conspicuous turning response: none

## Tertiapin (ALCNCNRIIIPHMCWKKCGKK; UniProt P56587 1-21, looked up) [apitoxin component, Sigma-Aldrich #T8316, reference compound]
Tertiapin alone, 1 and 3 mg/kg
  Atypical Motor Behaviors: None
  Rotational Response Contralateral: 5 number of turns in 12 hours
  Rotational Response Ipsilateral: 40 number of turns in 12 hours
Tertiapin at 1 and 3 mg/kg
  rotational behavior above baseline (spontaneous rotation): little or no rotational behavior
Apitoxin component given alone
  ability similar to apamin to induce a conspicuous turning response: none
